Key:
[1] = target: T1, Androgen receptor (Rattus norvegicus, UniProt P15207)
T1 sequence (P15207 whole entry): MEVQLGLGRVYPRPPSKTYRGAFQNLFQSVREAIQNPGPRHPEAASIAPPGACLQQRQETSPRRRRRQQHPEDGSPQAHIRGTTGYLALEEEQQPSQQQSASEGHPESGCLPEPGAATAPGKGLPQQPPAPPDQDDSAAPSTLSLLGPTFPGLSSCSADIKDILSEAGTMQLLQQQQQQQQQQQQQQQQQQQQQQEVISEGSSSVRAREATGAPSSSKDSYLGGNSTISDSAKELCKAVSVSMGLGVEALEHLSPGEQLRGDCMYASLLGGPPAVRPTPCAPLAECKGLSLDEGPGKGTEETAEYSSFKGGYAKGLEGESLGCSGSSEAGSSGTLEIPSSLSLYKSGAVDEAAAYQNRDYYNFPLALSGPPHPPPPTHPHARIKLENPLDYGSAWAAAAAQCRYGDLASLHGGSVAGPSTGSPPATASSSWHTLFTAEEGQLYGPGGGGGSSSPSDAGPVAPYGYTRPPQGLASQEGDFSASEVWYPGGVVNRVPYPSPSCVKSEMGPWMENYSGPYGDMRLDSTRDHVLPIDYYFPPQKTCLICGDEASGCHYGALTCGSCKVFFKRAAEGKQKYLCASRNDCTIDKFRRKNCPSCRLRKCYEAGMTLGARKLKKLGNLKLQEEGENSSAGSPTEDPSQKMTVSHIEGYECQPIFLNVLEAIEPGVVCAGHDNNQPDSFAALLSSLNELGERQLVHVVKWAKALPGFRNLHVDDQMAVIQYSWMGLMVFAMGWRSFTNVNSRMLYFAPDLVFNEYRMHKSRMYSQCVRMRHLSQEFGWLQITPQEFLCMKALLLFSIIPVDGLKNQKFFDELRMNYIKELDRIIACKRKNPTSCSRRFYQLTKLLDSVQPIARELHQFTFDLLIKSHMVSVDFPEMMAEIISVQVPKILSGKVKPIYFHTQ

[2] = target: Glycine receptor (Rattus norvegicus, UniProt P07727+P20781+P22771+P24524); type: cell membranes, Wistar, Spinal cord, Membrane
[3] = target: Cytochrome P450 2C19 (Homo sapiens, UniProt P33261)
Sequence of Cytochrome P450 2C19 (P33261 whole entry): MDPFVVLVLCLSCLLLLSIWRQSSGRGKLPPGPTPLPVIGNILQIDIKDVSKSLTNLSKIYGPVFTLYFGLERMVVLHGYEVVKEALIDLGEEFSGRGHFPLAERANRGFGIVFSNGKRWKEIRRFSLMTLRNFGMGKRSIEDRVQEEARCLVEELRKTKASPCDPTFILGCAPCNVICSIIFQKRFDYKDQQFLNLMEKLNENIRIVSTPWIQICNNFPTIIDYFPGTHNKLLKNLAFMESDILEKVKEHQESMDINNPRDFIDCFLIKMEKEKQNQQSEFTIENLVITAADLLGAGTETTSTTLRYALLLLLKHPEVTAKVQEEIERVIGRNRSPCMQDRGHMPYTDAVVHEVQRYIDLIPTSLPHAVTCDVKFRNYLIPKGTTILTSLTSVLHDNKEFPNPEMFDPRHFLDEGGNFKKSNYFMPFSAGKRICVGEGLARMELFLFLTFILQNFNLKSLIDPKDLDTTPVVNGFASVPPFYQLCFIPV

Sequence of Glycine receptor (P22771 whole entry): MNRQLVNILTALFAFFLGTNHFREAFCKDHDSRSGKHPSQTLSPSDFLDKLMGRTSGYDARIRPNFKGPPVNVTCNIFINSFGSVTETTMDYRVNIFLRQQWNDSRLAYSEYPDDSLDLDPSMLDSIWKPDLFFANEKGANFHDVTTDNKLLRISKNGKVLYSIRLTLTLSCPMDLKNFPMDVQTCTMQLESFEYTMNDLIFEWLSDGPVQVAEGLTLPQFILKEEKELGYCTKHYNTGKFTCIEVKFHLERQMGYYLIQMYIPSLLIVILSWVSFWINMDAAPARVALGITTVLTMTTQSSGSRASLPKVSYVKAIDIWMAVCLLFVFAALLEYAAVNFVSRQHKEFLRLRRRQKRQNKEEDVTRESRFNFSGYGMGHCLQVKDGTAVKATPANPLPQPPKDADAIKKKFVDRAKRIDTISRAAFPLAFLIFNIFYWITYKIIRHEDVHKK
Sequence of Glycine receptor (P24524 whole entry): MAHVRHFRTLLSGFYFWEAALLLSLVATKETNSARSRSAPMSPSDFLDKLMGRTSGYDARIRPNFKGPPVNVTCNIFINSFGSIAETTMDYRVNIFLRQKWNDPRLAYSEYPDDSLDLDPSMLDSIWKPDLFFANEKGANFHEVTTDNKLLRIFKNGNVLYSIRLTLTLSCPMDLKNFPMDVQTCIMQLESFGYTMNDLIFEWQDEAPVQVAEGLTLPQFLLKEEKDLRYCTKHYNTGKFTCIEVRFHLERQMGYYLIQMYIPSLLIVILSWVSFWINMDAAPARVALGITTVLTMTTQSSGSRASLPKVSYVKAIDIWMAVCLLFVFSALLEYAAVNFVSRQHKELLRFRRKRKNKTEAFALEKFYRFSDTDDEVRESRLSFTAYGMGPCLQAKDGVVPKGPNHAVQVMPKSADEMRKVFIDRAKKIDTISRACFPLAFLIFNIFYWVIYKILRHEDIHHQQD
Sequence of Glycine receptor (P07727 whole entry): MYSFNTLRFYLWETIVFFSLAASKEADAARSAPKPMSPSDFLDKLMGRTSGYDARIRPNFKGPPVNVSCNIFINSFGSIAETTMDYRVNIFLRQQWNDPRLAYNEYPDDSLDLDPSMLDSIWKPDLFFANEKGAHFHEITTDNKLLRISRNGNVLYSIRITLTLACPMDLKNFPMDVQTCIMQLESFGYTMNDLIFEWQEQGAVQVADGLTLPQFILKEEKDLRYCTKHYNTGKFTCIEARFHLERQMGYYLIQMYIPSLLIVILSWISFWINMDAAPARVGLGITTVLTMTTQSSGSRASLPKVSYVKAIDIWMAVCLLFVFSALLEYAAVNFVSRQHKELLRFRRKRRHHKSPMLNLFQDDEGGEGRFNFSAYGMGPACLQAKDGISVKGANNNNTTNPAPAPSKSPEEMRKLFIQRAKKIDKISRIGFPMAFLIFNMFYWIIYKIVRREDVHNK
Sequence of Glycine receptor (P20781 whole entry): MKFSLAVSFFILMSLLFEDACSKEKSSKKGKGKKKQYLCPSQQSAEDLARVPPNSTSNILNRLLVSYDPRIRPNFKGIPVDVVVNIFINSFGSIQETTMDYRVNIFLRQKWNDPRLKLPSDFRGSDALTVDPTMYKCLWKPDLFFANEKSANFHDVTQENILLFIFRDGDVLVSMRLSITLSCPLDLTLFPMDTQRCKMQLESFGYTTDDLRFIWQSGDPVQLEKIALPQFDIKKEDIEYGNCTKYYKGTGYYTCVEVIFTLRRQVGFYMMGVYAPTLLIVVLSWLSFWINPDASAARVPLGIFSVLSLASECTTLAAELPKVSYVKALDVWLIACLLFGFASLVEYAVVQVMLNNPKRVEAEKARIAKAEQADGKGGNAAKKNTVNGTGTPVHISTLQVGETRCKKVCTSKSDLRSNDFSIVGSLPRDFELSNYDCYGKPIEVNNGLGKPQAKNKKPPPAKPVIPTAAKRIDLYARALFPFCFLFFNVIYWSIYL

Clc1ccc(COC(Cn2ccnc2)c2ccc(Cl)cc2Cl)c(Cl)c1 (stereo not given) [MICONAZOLE]
IC50 [1]: 7090 nM | Ki [1]: 4730 nM

O=C1C[C@@H]2OCC=C3CN4CC[C@]56c7ccccc7N1[C@H]5[C@H]2[C@H]3C[C@H]46 [STRYCHNINE]
IC50 [2]: 8.29 nM | Ki [2]: 4.69 nM

C[S+]([O-])c1ccc(-c2nc(-c3ccncc3)c(-c3ccc(F)cc3)[nH]2)cc1 (stereo not given) [SB-203580]
IC50 [3]: 800 nM
